Data reported in patent publication US9127001B2, “Substituted 4,5,6,7-tetrahydro-1H-pyrazolo[4,3-c]pyridines, their use as medicament, and pharmaceutical preparations comprising them” (Sanofi, priority 2011, dated 2015).

test system: left atrium of the anesthetized pig; assay: Refractory period and left-atrial vulnerability in the anesthetized pig; assay type: in vivo; details: bolus 1 mg/kg, S2-induced arrhythmias, 3 measurements before vs. 3 during first hour after administration, mean value n = 3
Procedure: Investigation of the Refractory Period and the Left-Atrial Vulnerability in the Pig
The compounds were tested for prolongation of the refractory period and antiarrhythmic activity on the atrium of the anesthetized pig as described in the literature (Knobloch et al. 2002. Naunyn-Schmiedberg's Arch. Pharmacol. 366; 482-487). Here the anti-arrhythmic action relates to the inhibition of the occurrence of episodes of arrhythmias which are induced by a prematurely placed extra-stimulus (S2) in the left atrium (=left-atrial vulnerability). The refractory period values are stated in percent of the basal values 15 minutes after injection. Mean values for the refractory periods are shown from three rates (150, 200 and 250/min).
The action of 3-[5-Acetyl-1-(2,4-difluoro-benzyl)-4,5,6,7-tetrahydro-1H-pyrazolo[4,3-c]pyridin-3-yl]-benzonitrile (6a) on the refractory period of the left atrium and antiarrhythmic activity in the anesthetized pig after a bolus administration of 1 mg/kg is shown in table 1. From the results shown in table 1, it is seen that it was possible to prevent 61% of the induced arrhythmias.

Compound | % inhibition of the arrhythmias [%]
CC(=O)N1CCc2c(c(-c3cccc(C#N)c3)nn2Cc2ccc(F)cc2F)C1 [Example 6a, 3-[5-Acetyl-1-(2,4-difluoro-benzyl)-4,5,6,7-tetrahydro-1H-pyrazolo[4,3-c]pyridin-3-yl]-benzonitrile] | 61

same assay, conditions: left atrium, bolus 1 mg/kg, 15 minutes after injection, mean of three rates (150, 200 and 250/min), mean value n = 3

Compound | % increase in the refractory period [%]
CC(=O)N1CCc2c(c(-c3cccc(C#N)c3)nn2Cc2ccc(F)cc2F)C1 [Example 6a, 3-[5-Acetyl-1-(2,4-difluoro-benzyl)-4,5,6,7-tetrahydro-1H-pyrazolo[4,3-c]pyridin-3-yl]-benzonitrile] | 14

target: Human TASK-1 channels (Homo sapiens (Human), UniProt O14649); assay: Activity on the TASK-1 channel in Xenopus oocytes (two-microelectrode voltage clamp); assay type: cell-based; details: not given
Outline: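 Human TASK-1 was expressed in defolliculated Xenopus laevis oocytes by in vitro-synthesised RNA injection and recorded by two-microelectrode voltage clamp. Oocytes were superfused with ND96 (pH 7.4) at room temperature, with compound added at rising concentrations. IC50 came from a general dose-response fit.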

Human TASK-1 channels, sequence (O14649 whole entry, the tested form may be a part): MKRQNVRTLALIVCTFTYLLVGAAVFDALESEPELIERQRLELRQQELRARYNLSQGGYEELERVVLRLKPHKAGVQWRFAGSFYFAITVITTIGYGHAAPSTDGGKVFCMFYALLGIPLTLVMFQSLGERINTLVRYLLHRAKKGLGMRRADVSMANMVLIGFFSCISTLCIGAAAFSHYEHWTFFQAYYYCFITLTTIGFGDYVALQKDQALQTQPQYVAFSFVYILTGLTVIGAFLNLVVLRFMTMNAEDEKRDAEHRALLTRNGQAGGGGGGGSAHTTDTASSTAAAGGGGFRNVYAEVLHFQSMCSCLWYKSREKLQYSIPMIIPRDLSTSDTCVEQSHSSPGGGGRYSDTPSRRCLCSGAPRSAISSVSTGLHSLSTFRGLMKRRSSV

inhibition at 5 µM [%] | Compound
77 | CCOC(=O)N1CCc2c(c(-c3cccc(C#N)c3)nn2Cc2ccc(F)cc2F)C1 [Example 8y, 3-(3-Cyano-phenyl)-1-(2,4-difluoro-benzyl)-1,4,6,7-tetrahydro-pyrazolo[4,3-c]pyridine-5-carboxylic acid ethyl ester]
76 | CC(C)NC(=O)N1CCc2c(c(-c3cccc(C#N)c3)nn2Cc2ccc(F)cc2F)C1 [Example 11a, 3-(3-Cyano-phenyl)-1-(2,4-difluoro-benzyl)-1,4,6,7-tetrahydro-pyrazolo[4,3-c]pyridine-5-carboxylic acid isopropylamide]
91 | CCNC(=O)N1CCc2c(c(-c3cccc(C#N)c3)nn2Cc2ccc(F)cc2F)C1 [Example 11h, 3-(3-Cyano-phenyl)-1-(2,4-difluoro-benzyl)-1,4,6,7-tetrahydro-pyrazolo[4,3-c]pyridine-5-carboxylic acid ethylamide]
74 | CN(C)C(=O)N1CCc2c(c(-c3cccc(C#N)c3)nn2Cc2ccc(F)cc2F)C1 [Example 12d, 3-(3-Cyano-phenyl)-1-(2,4-difluoro-benzyl)-1,4,6,7-tetrahydro-pyrazolo[4,3-c]pyridine-5-carboxylic acid dimethylamide]
65 | CN(CCO)C(=O)N1CCc2c(c(-c3cccc(C#N)c3)nn2Cc2ccc(F)cc2F)C1 [Example 12e, 3-(3-Cyano-phenyl)-1-(2,4-difluoro-benzyl)-1,4,6,7-tetrahydro-pyrazolo[4,3-c]pyridine-5-carboxylic acid (2-hydroxy-ethyl)-methyl-amide]

same assay, conditions: human TASK-1 expressed in Xenopus oocytes, currents during pulses to 40 mV, room temperature

IC50 [nM] | Compound
95 | CC(=O)N1CCc2c(c(-c3cccc(C#N)c3)nn2Cc2ccc(F)cc2F)C1 [Example 6a, 3-[5-Acetyl-1-(2,4-difluoro-benzyl)-4,5,6,7-tetrahydro-1H-pyrazolo[4,3-c]pyridin-3-yl]-benzonitrile]
530 | CCC(=O)N1CCc2c(c(-c3cccc(C#N)c3)nn2Cc2ccc(F)cc2F)C1 [Example 8p, 3-[1-(2,4-Difluoro-benzyl)-5-propionyl-4,5,6,7-tetrahydro-1H-pyrazolo[4,3-c]pyridin-3-yl]-benzonitrile]
756 | C[C@H](O)C(=O)N1CCc2c(c(-c3cccc(C#N)c3)nn2Cc2ccc(F)cc2F)C1 [Example 8q, 3-[1-(2,4-Difluoro-benzyl)-5-((S)-2-hydroxy-propionyl)-4,5,6,7-tetrahydro-1H-pyrazolo[4,3-c]pyridin-3-yl]-benzonitrile]
1140 | O=C(Cc1ccccc1)N1CCc2c(c(-c3ccc(F)cc3)nn2Cc2ccccc2)C1 [Example 8r, 1-[1-Benzyl-3-(4-fluoro-phenyl)-1,4,6,7-tetrahydro-pyrazolo[4,3-c]pyridin-5-yl]-2-phenyl-ethanone]
< 10000 | CCCC(=O)N1CCc2c(c(-c3cccc(C#N)c3)nn2Cc2ccc(F)cc2F)C1 [Example 8s, 3-[5-Butyryl-1-(2,4-difluoro-benzyl)-4,5,6,7-tetrahydro-1H-pyrazolo[4,3-c]pyridin-3-yl]-benzonitrile]
246 | N#Cc1cccc(-c2nn(Cc3ccc(F)cc3F)c3c2CN(C(=O)c2ccccn2)CC3)c1 [Example 8t, 3-[1-(2,4-Difluoro-benzyl)-5-(pyridine-2-carbonyl)-4,5,6,7-tetrahydro-1H-pyrazolo[4,3-c]pyridin-3-yl]-benzonitrile]
416 | N#Cc1cccc(-c2nn(Cc3ccc(F)cc3F)c3c2CN(C(=O)c2ccncc2F)CC3)c1 [Example 8u, 3-[1-(2,4-Difluoro-benzyl)-5-(3-fluoro-pyridine-4-carbonyl)-4,5,6,7-tetrahydro-1H-pyrazolo[4,3-c]pyridin-3-yl]-benzonitrile]
864 | N#Cc1cccc(-c2nn(Cc3ccc(F)cc3F)c3c2CN(C(=O)c2ccncn2)CC3)c1 [Example 8v, 3-[1-(2,4-Difluoro-benzyl)-5-(pyrimidine-4-carbonyl)-4,5,6,7-tetrahydro-1H-pyrazolo[4,3-c]pyridin-3-yl]-benzonitrile]
1150 | Cn1cncc1C(=O)N1CCc2c(c(-c3cccc(C#N)c3)nn2Cc2ccc(F)cc2F)C1 [Example 8w, 3-[1-(2,4-Difluoro-benzyl)-5-(3-methyl-3H-imidazole-4-carbonyl)-4,5,6,7-tetrahydro-1H-pyrazolo[4,3-c]pyridin-3-yl]-benzonitrile]
1880 | Cn1ccc(C(=O)N2CCc3c(c(-c4cccc(C#N)c4)nn3Cc3ccc(F)cc3F)C2)n1 [Example 8x, 3-[1-(2,4-Difluoro-benzyl)-5-(1-methyl-1H-pyrazole-3-carbonyl)-4,5,6,7-tetrahydro-1H-pyrazolo[4,3-c]pyridin-3-yl]-benzonitrile]
511 | CC(=O)N1Cc2c(-c3ccc(F)cc3)nn(Cc3ccc(F)cc3F)c2CC1C (stereo not shown) [Example 8z, 1-[1-(2,4-Difluoro-benzyl)-3-(4-fluoro-phenyl)-6-methyl-1,4,6,7-tetrahydro-pyrazolo[4,3-c]pyridin-5-yl]-ethanone]
380 | CNC(=O)N1CCc2c(c(-c3cccc(C#N)c3)nn2Cc2ccc(F)cc2F)C1 [Example 12a, 3-(3-Cyano-phenyl)-1-(2,4-difluoro-benzyl)-1,4,6,7-tetrahydro-pyrazolo[4,3-c]pyridine-5-carboxylic acid methylamide]
422 | CC(=O)N1CCc2c(c(-c3cc(C#N)ccn3)nn2Cc2ccc(F)cc2F)C1 [Example 13a, 2-[5-Acetyl-1-(2,4-difluoro-benzyl)-4,5,6,7-tetrahydro-1H-pyrazolo[4,3-c]pyridin-3-yl]-isonicotinonitrile]
462 | CC(=O)N1CCc2c(c(-c3cccc(C#N)n3)nn2Cc2ccc(F)cc2F)C1 [Example 13b, 6-[5-Acetyl-1-(2,4-difluoro-benzyl)-4,5,6,7-tetrahydro-1H-pyrazolo[4,3-c]pyridin-3-yl]-pyridine-2-carbonitrile]
< 10000 | N#Cc1cccc(-c2nn(Cc3ccc(F)cc3F)c3c2CN(C(=O)CO)CC3)c1 [Example 14a, 3-[1-(2,4-Difluoro-benzyl)-5-(2-hydroxy-acetyl)-4,5,6,7-tetrahydro-1H-pyrazolo[4,3-c]pyridin-3-yl]-benzonitrile]
